Source: patent US20220024877A1 (Kansas State University Research Foundation, priority 2018, published 2022)
Values after ≈ are worked out from the molar mass of the structure shown. Where two headings read alike, the source gives them in different places.

Experiments:
MRSA = assay: In vitro activity against S. aureus (MRSA), MIC with or without Cu supplementation; conditions: Staphylococcus aureus, MRSA
[1] = Copper(I) binding constant of NNSN compounds (1H-NMR titration with CuBr in D4-methanol); conditions: for Binding constant: Cu-NNSN 1:1 stoichiometry; for Copper (I) binding constant: Table I
Experimental: They were recorded in D4-methanol by means of adding aliquots of a 5 mmol CuBr stock solution in D4-methanol to the 1 mmol NNSN-compound, resulting in 0, 0.5, 1.0, 2.0 and 3.0 mmol CuBr concentration in D4-methanol.

[2] = read-out: MIC* against MRSA (μM), kinetic data (determined from bacteria growth experiments), resulting in IC50 values similar to MIC values

| Compound | Binding constant [1] | MIC (MRSA; [2]) | also measured |
| --- | --- | --- | --- |
| O=[N+]([O-])c1ccc(NC(=S)Nc2cc[nH]n2)cc1 [SB28, 1-(4-nitrophenyl)-3-(1H-pyrazol-3-yl)thiourea] | 1200 M⁻¹ | – | MIC (MRSA; read-out: MIC (MRSA), MRSA): 5 µM (≈ 1.32 µg/mL) |
| COc1ccc(NC(=S)n2ccc(N)n2)cc1 [SB31, 3-amino-N-(4-methoxyphenyl)-1H-pyrazole-1-carbothioamide] | – | 10 µM (≈ 2.48 µg/mL) | Copper (I) binding constant [1]: 5452 M⁻¹ |
| FC(F)(F)c1ccn(C(=S)Nc2ccc(Cl)cc2)n1 [SB20] | < 1000 M⁻¹ | – | – |
| O=[N+]([O-])c1ccc(COc2ccn(C(=S)Nc3ccc(Cl)cc3)n2)cc1 [SB63, N-(4-chlorophenyl)-3-((4-nitrobenzyl)oxy)-1H-pyrazole-1-carbothioamide] | – | – | MIC (MRSA; organism not named there): > 10 µM |
| Nc1cnn(C(=S)Nc2ccc(Cl)cc2)c1 [SB39] | 2200 M⁻¹ | – | – |
| Cc1ccc(NC(=S)n2ccc(N)n2)cc1 [SB32, 3-amino-N-(p-tolyl)-1H-pyrazole-1-carbothioamide] | – | 2.5 µM (≈ 0.581 µg/mL) | Copper (I) binding constant [1]: 6140 M⁻¹ |
| Cn1ccc(NC(=O)Nc2ccc(Cl)cc2)n1 [SB11, 1-(4-chlorophenyl)-3-(1-methyl-1H-pyrazol-3-yl)urea] | < 100 M⁻¹ | – | – |
| S=C(Nc1ccc(Br)cc1)n1cccn1 [SB26, N-(4-bromophenyl)-1H-pyrazole-1-carbothioamide] | – | 10 µM (≈ 2.82 µg/mL) | Copper (I) binding constant [1]: 1550 M⁻¹ |
| Nc1ccn(C(=S)Nc2ccc(F)cc2)n1 [SB37, 3-amino-N-(4-fluorophenyl)-1H-pyrazole-1-carbothioamide] | – | 10 µM (≈ 2.36 µg/mL) | Copper (I) binding constant [1]: 5540 M⁻¹ |
| Cc1ccn(C(=S)Nc2c(C)cccc2C)n1 [SB72, N-(2,6-dimethylphenyl)-3-methyl-1H-pyrazole-1-carbothioamide] | – | – | MIC (MRSA; organism not named there): 0.6 µM (≈ 0.147 µg/mL) |
| S=C(Nc1ccc(Cl)cc1)n1ccnn1 [SB18] | < 1000 M⁻¹ | – | – |
| O=[N+]([O-])c1cnn(C(=S)Nc2ccc(Cl)cc2)c1 [SB38] | < 100 M⁻¹ | – | – |
| Cc1cccc(C)c1NC(=S)n1cccn1 [SB71, N-(2,6-dimethylphenyl)-1H-pyrazole-1-carbothioamide] | – | – | MIC (MRSA; organism not named there): 0.6 µM (≈ 0.139 µg/mL) |
| Cn1ccc(NC(=S)Nc2ccc(Cl)cc2)n1 [SB29] | 1150 M⁻¹ | – | – |
| O=[N+]([O-])c1cnn(C(=S)Nc2ccc(Cl)cc2)c1 [SB30, N-(4-chlorophenyl)-4-nitro-1H-pyrazole-1-carbothioamide] | 1100 M⁻¹ | – | – |
| S=C(Nc1ccc(Cl)cc1)n1cc(Br)cn1 [SB68, 4-bromo-N-(4-chlorophenyl)-1H-pyrazole-1-carbothioamide] | – | – | MIC (MRSA; organism not named there): 10 µM (≈ 3.17 µg/mL) |
| CC(C)(C)n1ccc(NC(=O)Nc2ccc(Cl)cc2)n1 [SB10, 1-(1-(tert-butyl)-1H-pyrazol-3-yl)-3-(4-chlorophenyl)urea] | 1786.13 M⁻¹ | – | – |

Second part, led by results:

| Binding constant [1] | MIC (MRSA; [2]) | Compound | also measured |
| --- | --- | --- | --- |
| – | 0.15 µM (≈ 0.0379 µg/mL) | Nc1ccn(C(=S)Nc2cccc(Cl)c2)n1 [SB50, 3-amino-N-(3-chlorophenyl)-1H-pyrazole-1-carbothioamide] | – |
| – | 2.5 µM (≈ 0.739 µg/mL) | COC(=O)c1ccn(C(=S)Nc2cccc(Cl)c2)n1 [SB74, Methyl 1-((3-chlorophenyl)carbamothioyl)-1H-pyrazole-3-carboxylate] | Copper (I) binding constant [1]: 1127.86 M⁻¹ |
| – | 0.6 µM (≈ 0.168 µg/mL) | CN(C)c1ccn(C(=S)Nc2ccc(Cl)cc2)n1 [SB40, N-(4-chlorophenyl)-3-(dimethylamino)-1H-pyrazole-1-carbothioamide] | Copper (I) binding constant [1]: 58500 M⁻¹ |
| – | 0.6 µM (≈ 0.152 µg/mL) | Nc1ccn(C(=S)Nc2ccccc2Cl)n1 [SB49, 3-amino-N-(2-chlorophenyl)-1H-pyrazole-1-carbothioamide] | – |
| – | 0.3 µM (≈ 0.127 µg/mL) | S=C(Nc1ccn(C(=S)Nc2ccccc2Cl)n1)Nc1ccccc1Cl [SB53, N-(2-chlorophenyl)-3-(3-(2-chlorophenyl)thioureido)-1H-pyrazole-1-carbothioamide] | – |
| – | 2.5 µM (≈ 0.594 µg/mL) | S=C(Nc1cccc(Cl)c1)n1cccn1 [SB52, N-(3-chlorophenyl)-1H-pyrazole-1-carbothioamide] | – |
| – | 2.5 µM (≈ 0.742 µg/mL) | Cc1nn(C(=S)Nc2ccc(Cl)cc2)cc1[N+](=O)[O-] [SB47, N-(4-chlorophenyl)-3-methyl-4-nitro-1H-pyrazole-1-carbothioamide] | – |
